Several values for one entry are separate records, joined by “and”; a condition that tells them apart may be missing. Equal values may be shown once.
How the values were obtained:
[1] = Plasma pharmacokinetics of dacomitinib and metabolite PF-05199265; format: in vivo, patients; conditions: for Pre-dose (0 h) plasma concentration, mean (CV%) / Pre-dose (0 h) plasma concentration, median: Cycle 0, Day 4, 45 mg dacomitinib q12 h
EGFR-mutant lung cancer = conditions: first-line therapy, standard daily dosing, ARCHER 1050; cited from earlier work
[2] = test system: lung cancers harboring EGFR T790M; format: in vivo, patients; conditions: Cohort A
[3] = test system: patients with advanced NSCLC; conditions: in vivo
EGFR-mutant lung cancers = conditions: first line, subset with EGFR-mutant lung cancers; cited from earlier work
QT interval = test: ECG analysis of QTc interval change from baseline; format: in vivo, patients
[4] = test system: T790M-negative, otherwise molecularly unselected advanced NSCLC; test: Phase 2 study of intermittent pulse dacomitinib, efficacy, Cohort B; format: in vivo, patients; conditions: 95% CI 1.0–3.3 months
[5] = continuous daily dosing; cited from earlier work
[6] = Cycle 0, Day 4, following 6 doses (q12 h) of 45 mg dacomitinib
[7] = Cycle 1, Day 1, following 3 day washout after 6 doses (q12 h) of 45 mg dacomitinib
[8] = Cycle 1, Day 4, following 5 doses (q12 h) of 60 mg dacomitinib

**Q.** For `O=C(/C=C/CN1CCCCC1)Nc1cc2c(Nc3ccc(F)c(Cl)c3)ncnc2cc1O` [PF-05199265], which “Pre-dose (0 h) plasma concentration, mean (CV%)” value [1] is on record?
**A.** 7.1 ng/mL and 7.1 (161) ng/mL

**Q.** What about the “Pre-dose (0 h) plasma concentration, median” value [1] of the same compound?
**A.** 4.6 ng/mL

**Q.** What about the “AUC0–10, mean (CV%)” value [1, 6] of the same compound?
**A.** 75.0 (148) ng h/mL

**Q.** What about the “AUC0–10, median” value [1, 6] of the same compound?
**A.** 50.8 ng·h/mL

**Q.** What about the “Cmax, mean (CV%)” value [1, 6] of the same compound?
**A.** 8.5 (150) ng/mL

**Q.** What about the “Cmax, median” value [1, 6] of the same compound?
**A.** 5.9 ng/mL

**Q.** What about the “Cmin, mean (CV%)” value [1, 6] of the same compound?
**A.** 6.8 (157) ng/mL

**Q.** And the “Cmin, median” value [1, 6]?
**A.** 4.5 ng/mL

**Q.** What about the “Tmax, median (minimum–maximum)” value [1, 6] of the same compound?
**A.** 5.6 (0–11.0) hr

**Q.** What about the “Pre-dose plasma concentration, mean (CV%)” value [1, 7] of the same compound?
**A.** 3.8 (83) ng/mL

**Q.** What about the “Pre-dose plasma concentration, median” value [1, 7] of the same compound?
**A.** 2.8 ng/mL

**Q.** What about the “Pre-dose plasma concentration, mean (CV%)” value [1, 8] of the same compound?
**A.** 9.0 (93) ng/mL

**Q.** What about the “Pre-dose plasma concentration, median” value [1, 8] of the same compound?
**A.** 7.43 ng/mL

**Q.** Which results are given for `COc1cc2ncnc(Nc3ccc(F)c(Cl)c3)c2cc1NC(=O)/C=C/CN1CCCCC1` [dacomitinib]?
**A.** median progression-free survival (EGFR-mutant lung cancer): 14.7 months; ORR (overall response rate) ([2]; 16 patients, 95% CI 0.2%–30.2%, p-value = 0.15): 6.3%; median PFS ([2]; 95% CI 1.4–4.4 months): 2.3 months; Grade 3 treatment-emergent lymphopenia ([3]; human): 13.2%; frequency of the most frequent treatment-related toxicities (diarrhea, rash, stomatitis, nausea, dry skin, paronychia, fatigue, decreased appetite) ([3]; human): > 20 % of patients; treatment-related serious adverse events: dehydration ([3]; human): 2; treatment-related serious adverse events: diarrhea ([3]; human): 2; treatment-related serious adverse events: nausea ([3]; human): 1; Grade 3 hypermagnesemia, patients [3]: three; number of treatment-related serious adverse events [3]: five; patients who discontinued study therapy due to a treatment-related adverse event [3]: No patients; patients with at least one treatment-related adverse event [3]: All patients; patients with treatment-related serious adverse events [3]: three; treatment-related cardiac adverse events [3]: no treatment-related cardiac adverse events; Pre-dose (0 h) plasma concentration, mean (CV%) [1]: 76.4 ng/mL; Pre-dose (0 h) plasma concentration, median [1]: 68.4 ng/mL; Pre-dose (0 h) plasma concentration, mean (CV%) ([1]; listed as Dacomitinib): 76.4 (43) ng/mL; Cmin, mean (CV%) [1, 6]: 71.3 (39) ng/mL; Cmin, median [1, 6]: 65.6 ng/mL; Pre-dose plasma concentration, mean (CV%) [1, 7]: 32.1 (65) ng/mL; Pre-dose plasma concentration, median [1, 7]: 26.9 ng/mL; Pre-dose plasma concentration, mean (CV%) [1, 8]: 108.1 (39) ng/mL; Pre-dose plasma concentration, median [1, 8]: 100 ng/mL; Tmax ([1]; human, plasma, oral, 45 mg): 6.1 h; AUC(0-t) ([1]; human, plasma, oral, 45 mg, AUC0–10, mean (CV%), Cycle 0, Day 4, following 6 doses (q12 h) of 45 mg dacomitinib): 794 ng·h/mL; AUC(0-t) ([1]; human, plasma, oral, 45 mg, AUC0–10, median, Cycle 0, Day 4, following 6 doses (q12 h) of 45 mg dacomitinib): 728 ng·h/mL; Cmax ([1]; human, plasma, oral, 45 mg, mean (CV%), Cycle 0, Day 4, following 6 doses (q12 h) of 45 mg dacomitinib): 96.8 ng/mL; Cmax ([1]; human, plasma, oral, 45 mg, median, Cycle 0, Day 4, following 6 doses (q12 h) of 45 mg dacomitinib): 90.7 ng/mL; estimated median progression-free survival (EGFR-mutant lung cancers): 18.2 months; overall response rate (EGFR-mutant lung cancers): 76%; upper limits of the 95% CI for the mean change from baseline in QTc (QTcB, QTcF, QTcS) (QT interval; all Cycle 0 day 4 time points, 45 mg q12 h): < 10 ms; effect on cardiac repolarization (QT interval; at exposures comparable to steady state of 45 mg daily regimen): no effects on cardiac repolarization; median PFS [4]: 1.6 months; maximum tolerated dose [5]: 45 mg daily

Reference: publication PMC8788626 (Lung cancer (Amsterdam, Netherlands), 2017)
